# Values of other authors in PMC8761874 (European Journal of Nuclear Medicine and Molecular Imaging, 2022).
# Where two headings read alike, the source gives them in different places.
# Tests used:
# [1] = tested on: PD-L1-positive non-small cell lung cancer; conditions: tiragolumab plus atezolizumab, ref [15]
# [2] = tested on: patients with advanced solid tumors; conditions: ref [13]
Molecule,objective response rate (ORR) ([1]; subgroup with high PD-L1 expression) [%],objective response rate (ORR) [1] [%],"partial response rate ([2]; in combination with pembrolizumab, n = 8/43) [%]","partial response rate ([2]; monotherapy, n = 1/34) [%]"
"tiragolumab: anti-TIGIT mAb, given with atezolizumab in the CITYSCAPE trial",66,37,–,–
"MK-7684: anti-TIGIT mAb in a phase I trial (antibody, chains of the INN, looked up, V domains shown) VH: EVQLVQSGAEVKKPGSSVKVSCKASGYTFSSYVMHWVRQAPGQGLEWIGYIDPYNDGAKYAQKFQGRVTLTSDKSTSTAYMELSSLRSEDTAVYYCARGGPYGWYFDVWGQGTTVTVSS VL: DIQMTQSPSSLSASVGDRVTITCRASEHIYSYLSWYQQKPGKVPKLLIYNAKTLAEGVPSRFSGSGSGTDFTLTISSLQPEDVATYYCQHHFGSPLTFGQGTRLEIK",–,–,19,3
